Here are results for 15 molecules from patent EP4818177A1, “TRICYCLIC DERIVATIVE INHIBITOR, AND PREPARATION METHOD AND USE THEREFOR” (Shanghai Hansoh Biomedical Co., Ltd., priority 2023, dated 2025).

One data set has as its system HCT116 wild-type cells. Briefly: Cell proliferation inhibition (CellTiter-Glo), wild-type cells. The class given is cell-based. The settings on record: Homo sapiens, HCT-116, HCT116 wild-type cells, 72-240 hours incubation. An excerpt: (§1) Test Example 2: Determination of the inhibitory effect of the compounds of the present invention on the proliferation activity of HCT116 and MTAP Knockout HCT116 cells.
(§2) 1. Experimental objective: to determine the inhibitory effect of the compound on the proliferation activity of HCT116 wild-type and HCT116 MTAP knockout cells. 2. Experimental instruments: Centrifuge (Eppendorf 5810R); microplate reader (BioTek Synergy H1 or PerkinElmer Envision); pipette (Eppendorf or Rainin). 3. Experimental reagents: HCT116 and MTAP Knockout HCT116 cells were purchased from Nanjing Cobioer; Cell Titer-Glo was purchased from Promega (Cat. No. G7573); McCoy' 5A was purchased from Gibco (Cat. No. 12330031); FBS was purchased from Gibco (Cat. No. 10091148); PBS was purchased from Gibco (Cat. No. 10010023); trypsin was purchased from Gibco (Cat. No. 25200056); cell culture plates were purchased from Corning (Cat. No. 3610). 4. Experimental methods: HCT116 and MTAP Knockout HCT116 cells were cultured in McCoy'5A medium containing 10% FBS until an appropriate cell density was reached. The cells were then collected and adjusted to a suitable concentration using complete medium. The cell suspension was seeded into a 96-well plate at 90 µL per well and allowed to adhere overnight in a 37°C, 5% CO2 incubator. Compound solutions of various concentrations were prepared using DMSO and culture medium, with a vehicle control set. The compound solutions were added to the 96-well plate at 10 µL per well, and the plate was incubated in a 37°C, 5% CO2 incubator for an additional 72-240 hours. After incubation, CellTiter-Glo solution was added, and the mixture was mixed uniformly by shaking, followed by incubation in the dark for 10 to 30 minutes. Luminescence was measured using a Synergy H1 or Envision microplate reader. 5. Experimental data processing method: The inhibition rate was calculated using the luminescence signal values, and the concentrations along with the inhibition rates were subjected to non-linear regression curve fitting using Graphpad Prism software to obtain the IC50 values.
Background: ATP-based viability assays read luminescence as a measure of living cells.

In data set [1] the target is T1, PRMT5/MEP50-MTA protein complex (Homo sapiens, UniProt O14744).
T1 construct: purchased Viva Biotech
The experiment in a line: Thermal shift assay: change in melting temperature of the PRMT5/MEP50-MTA protein complex. In kind it is binding. The settings on record: compound 8 µM, PRMT5/MEP50 2 µM, MTA 2 µM; Tm minus DMSO vehicle control. From the text: Test Example 1: Determination of the ability of the compounds of the present invention to improve the thermal stability (melting temperature) of the PRMT5/MEP50-MTA protein complex.
1. Experimental objective: The objective of this test example is to determine the ability of the compound to improve the thermal stability of the PRMT5/MEP50-MTA protein complex, resulting in an increase in the protein melting temperature. 2. Experimental instruments: Quantitative PCR instrument (Quantstudio6 Flex) was purchased from Life Technologies; pipettes were purchased from Eppendorf or Rainin. 3. Experimental reagents and consumables: PRMT5/MEP50 protein was prepared by Viva Biotech; HEPES was purchased from Thermo Fisher Scientific (Cat. No. 15630080); DTT was purchased from Sigma (Cat. No. 43816-10ml); sodium chloride was purchased from Invitrogen (Cat. No. AM9760G); Protein Thermal Shift™ Dye Kit was purchased from Thermo Fisher Scientific (Cat. No. 4461146); methylthioadenosine (MTA) was purchased from Sigma (Cat. No. D5011). 4. Experimental methods: In this experiment, the thermal shift method was used to measure the change in the melting temperature (Tm) of the PRMT5/MEP50-MTA protein complex before and after compound binding, thereby characterising the ability of the compound to improve the thermal stability of the PRMT5/MEP50-MTA protein complex. A solution containing 50 mM HEPES, 10 mM DTT, 2 µM MTA, SYPRO Orange and 250 mM NaCl was prepared as the experimental buffer. Human PRMT5/MEP50 protein was added to a final concentration of 2 µM, and the mixture was incubated at room temperature for 30 minutes. The above reaction mixture was aliquoted into 8-strip PCR tubes at 19.5 µL per tube. Then 0.5 µL of test compound or DMSO was added to each tube, providing a total reaction volume of 20 µL and a final compound concentration of 8 µM. 2.5% DMSO was set as the vehicle control. After incubation at room temperature for 10 minutes, the PCR tubes were placed in a PCR instrument, and the melt curve function was selected to measure the melting temperature of the PRMT5/MEP50-MTA protein complex in different treatment groups (heated from 25°C to 95°C, 0.03°C/s). 5. Experimental data processing method: The experimental data files from the PCR instrument were imported into the thermal shift software to obtain the melting temperature (Tm) for each treatment group.

The subject of data set [2] is MTAP Knockout HCT116 cells. Briefly: Cell proliferation inhibition (CellTiter-Glo), MTAP knockout cells. In kind it is cell-based. Particulars: for Selectivity: HCT116 versus MTAP Knockout HCT116; for IC50: Homo sapiens, HCT-116, MTAP Knockout HCT116 cells, 72-240 hours incubation, CellTiter-Glo.
Text: as §1, §2

A short description of data set [3]: Pharmacokinetics in rats (plasma) after oral administration. The settings on record: male, SD, rat, 5 mg/kg.

T1 sequence (O14744 whole entry): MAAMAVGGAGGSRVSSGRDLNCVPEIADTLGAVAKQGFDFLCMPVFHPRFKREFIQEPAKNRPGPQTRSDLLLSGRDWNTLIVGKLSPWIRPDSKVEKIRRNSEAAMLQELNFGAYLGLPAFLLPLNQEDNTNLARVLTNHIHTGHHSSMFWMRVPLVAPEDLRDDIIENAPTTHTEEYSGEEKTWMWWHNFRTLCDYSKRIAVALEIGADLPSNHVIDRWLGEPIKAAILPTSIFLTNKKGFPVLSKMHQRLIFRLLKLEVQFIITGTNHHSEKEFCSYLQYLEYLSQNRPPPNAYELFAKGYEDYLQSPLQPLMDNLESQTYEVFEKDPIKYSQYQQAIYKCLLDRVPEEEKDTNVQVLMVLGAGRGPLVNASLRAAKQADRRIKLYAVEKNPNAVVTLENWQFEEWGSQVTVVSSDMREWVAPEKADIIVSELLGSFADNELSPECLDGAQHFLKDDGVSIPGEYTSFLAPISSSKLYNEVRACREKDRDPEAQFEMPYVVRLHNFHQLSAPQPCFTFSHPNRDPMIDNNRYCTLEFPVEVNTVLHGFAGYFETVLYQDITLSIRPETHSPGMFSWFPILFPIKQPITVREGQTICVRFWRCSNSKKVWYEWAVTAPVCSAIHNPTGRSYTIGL
T1 sequence (Q9BQA1 whole entry partner): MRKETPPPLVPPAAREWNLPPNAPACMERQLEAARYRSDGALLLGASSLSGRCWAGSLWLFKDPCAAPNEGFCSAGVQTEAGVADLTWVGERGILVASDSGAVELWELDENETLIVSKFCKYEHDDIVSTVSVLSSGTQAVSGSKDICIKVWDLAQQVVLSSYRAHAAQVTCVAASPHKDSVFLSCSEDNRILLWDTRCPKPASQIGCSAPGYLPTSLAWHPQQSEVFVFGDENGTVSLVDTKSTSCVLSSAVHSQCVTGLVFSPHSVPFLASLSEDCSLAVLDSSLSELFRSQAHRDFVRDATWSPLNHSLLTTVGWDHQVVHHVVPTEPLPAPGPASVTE

For `CNN(C(=O)c1ccc2nc(N)c3cnn(C)c3c2c1)C1COCc2nc(C(F)(F)F)ccc21` (racemic) [Example 301, 4-Amino-N',1-dimethyl-N-[2-(trifluoromethyl)-6,8-dihydro-5H-pyrano[3,4-b]pyridin-5-yl]pyrazolo[4,3-c]quinoline-8-hydrazide], in the data set on HCT116 wild-type cells, the IC50 is 1360 nM. Besides, the ΔTm at 8 µM in data set [1] is 11.6 °C. In data set [2], the Selectivity was determined as 94 and the IC50 came out at 14 nM.

Consider `CN(C(=O)c1ccc2nc(N)c3cnn(C)c3c2c1)C1COCc2c1ccn1cc(Br)nc21` (stereo not drawn) [Example 37, 4-Amino-N-(2-bromo-7,10-dihydro-8H-imidazo[1,2-a]pyrano[3,4-c]pyridin-7-yl)-N,1-dimethyl-1H-pyrazolo [4,3-c] quinoline-8-carboxamide], for which, in the data set with HCT116 wild-type cells, the IC50 was 1520 nM. For the same molecule, in data set [1], the ΔTm at 8 µM came to 11.3 °C. For the same molecule, in data set [2], the Selectivity was determined as 166 and the IC50 was 9.2 nM.

Regarding `Cc1cc2nc(N)c3cncn3c2cc1C(=O)N(C)[C@@H]1COCc2c1ccn1cc(C(F)(F)F)nc21` [Example 39-P1, (S)-4-amino-N,7-dimethyl-N-(2-(trifluoromethyl)-7,10-dihydro-8H-imidazo[1,2-a]pyrano[3,4-c]pyridin-7-yl)imidazo[1,5-a]quinoxaline-8-carboxamide], the IC50 was 1390 nM in the data set on HCT116 wild-type cells and 13 nM in data set [2]. Further, the ΔTm at 8 µM in data set [1] worked out at 12.4 °C. Moreover, the Selectivity in data set [2] is 108.

Consider `Cc1cc2nc(N)c3cncn3c2cc1C(=O)N(C)[C@@H]1COCc2c1ccn1c(C(F)(F)F)cnc21` [Example 62-P1, (S)-4-amino-N,7-dimethyl-N-(3-(trifluoromethyl)-7,10-dihydro-8H-imidazo[1,2-a]pyrano[3,4-c]pyridin-7-yl)imidazo[1,5-a]quinoxaline-8-carboxamide], for which the ΔTm at 8 µM in data set [1] stood at 12.5 °C. Moreover, in data set [3], the AUC(0-inf) was 1360 ng·h/mL, the Cmax was 441 ng/mL, the MRT inf was 4 h and the Tmax was 0.5 h. In data set [3], this molecule gave a half-life of 4.1 h.

`CNN(C(=O)c1cc2c(cc1F)nc(N)c1cncn12)C1COCc2nc(C(F)(F)F)ccc21` (stereo not drawn) [Example 279, 4-Amino-7-fluoro-N'-methyl-N-[2-(trifluoromethyl)-6,8-dihydro-5H-pyrano[3,4-b]pyridin-5-yl]imidazo[1,5-a]quinoxaline-8-hydrazide]: the ΔTm at 8 µM in data set [1] came out at 12.2 °C. For the same molecule, in data set [3], the AUC(0-inf) worked out at 729 ng·h/mL, the Cmax came out at 233 ng/mL, the MRT inf worked out at 2.1 h and the Tmax is 0.5 h. Also, the half-life in data set [3] is 1 h.

In the case of `[2H]C([2H])([2H])NN(C(=O)c1cc2c3c(c(N)nc2cc1F)COC3)C1COCc2c1ccn1c(C(F)(F)F)cnc21` (stereo not drawn) [Example 351, 4-Amino-7-fluoro-N'-(trideuteriomethyl)-N-(3-trifluoromethyl-7,10-dihydro-8H-imidazo [1,2-a]pyrano [3,4-c]pyridin-7-yl)-1,3-dihydrofuro [3,4-c] quinoline-8-carbohydrazide], the ΔTm at 8 µM in data set [1] came to 12.6 °C. Also, in data set [3], the AUC(0-inf) was 9660 ng·h/mL, the concentration peaked (Cmax) at 2330 ng/mL, the MRT inf is 3.3 h and the Tmax came to 0.5 h. The same molecule had a half-life in data set [3] of 2.3 h.

Consider `[2H]C([2H])([2H])NN(C(=O)c1cc2c3c(c(N)nc2cn1)C(C)OC3)C1COCc2c1ccn1c(C(F)(F)F)cnc21` (stereo not drawn) [Example 362, 4-Amino-3-methyl-N'-(trideuteriomethyl)-N-(3-trifluoromethyl-7,10-dihydro-8H-imidazo[1,2-a]pyrano[3,4-c]pyridin-7-yl)-1,3-dihydrofuro[3,4-c] naphthyridine-8-carbohydrazide], for which the ΔTm at 8 µM in data set [1] was 11.2 °C.

In the case of `CNN(C(=O)c1cc2c3c(c(N)nc2cn1)COC3)C1COc2cc(S(F)(F)(F)(F)F)ccc21` [Example 372, rel-(R)-4-amino-N'-methyl-N-(6-(pentafluoro-6-sulphanyl)-2,3-dihydrobenzofuran-3-yl)-1,3-dihydrofuro[3,4-c][1,7]naphthyridine-8-carbohydrazide], the ΔTm at 8 µM in data set [1] was determined as 11.2 °C.

As to `CNN(C(=O)c1cc2c(cn1)nc(N)c1cnn(C)c12)C1COc2cc(S(F)(F)(F)(F)F)ccc21` (stereo not drawn) [Example 375, 4-Amino-N',1-dimethyl-N-(6-(pentafluoro-6-sulphanyl)-2,3-dihydrobenzofuran-3-yl)-1H-pyrazolo[4,3-c][1,7]naphthyridine-8-carbohydrazide], in data set [1], the shift in melting temperature (ΔTm) at 8 µM was determined as 12.7 °C.

Consider `CNN(C(=O)c1cc2c(cn1)nc(N)c1cncn12)C1COCc2nc(S(F)(F)(F)(F)F)ccc21` (stereo not drawn) [Example 387, 4-Amino-N'-methyl-N-(2-pentafluorosulphanyl-5,8-dihydro-6H-pyrano[3,4-b]pyridin-5-yl)imidazo[1,5-a]pyridone[3,4-e]pyrazoline-8-hydrazide], for which the ΔTm at 8 µM in data set [1] was 12.6 °C.

For `[2H]C([2H])([2H])NN(C(=O)c1ccc2nc(N)c3c(c2c1)COC3)C1COCc2c1ccn1c(C(F)(F)F)cnc21` (stereo not drawn) [Example 392, 4-Amino-N'-(trideuteriomethyl)-N-(3-trifluoromethyl-7,10-dihydro-8H-imidazo [1,2-a]pyrano [3,4-c]pyridin-7-yl)-1,3-dihydrofuro [3,4-c] quinoline-8-carbohydrazide], the ΔTm at 8 µM in data set [1] came out at 10.4 °C.

As to `[2H]C([2H])([2H])NN(C(=O)c1cc2c3c(c(N)nc2cc1Cl)COC3)C1COCc2c1ccn1c(C(F)(F)F)cnc21` (stereo not drawn) [Example 394, 4-Amino-7-chloro-N'-(methyl-d3)-N-(3-(trifluoromethyl)-7,10-dihydro-8H-imidazo [1,2-a]pyrano [3,4-c]pyridin-7-yl)-1,3-dihydrofuro [3,4-c] quinoline-8-carbohydrazide], in data set [1], the thermal shift (ΔTm) at 8 µM was found to be 13.2 °C.

For `[2H]C([2H])([2H])NN(C(=O)c1cc2c(cc1Cl)nc(N)c1cnn(C)c12)C1COCc2c1ccn1c(C(F)(F)F)cnc21` (stereo not drawn) [Example 435, 4-Amino-7-chloro-1-methyl-N'-(methyl-d3)-N-(3-(trifluoromethyl)-7,10-dihydro-8H-imidazo[1,2-a]pyrano[3,4-c]pyridin-7-yl)-1H-pyrazolo[4,3-c] quinoline-8-carbohydrazide], the ΔTm at 8 µM in data set [1] came out at 13.7 °C.

`[2H]C([2H])([2H])NN(C(=O)c1ccc2nc(N)c3cnn(C)c3c2c1)[C@@H]1COCc2c1ccn1c(C(F)(F)F)cnc21` [Example 436-P1]: the ΔTm at 8 µM in data set [1] came out at 11.9 °C.

Take `CNN(C(=O)c1cc2c3c(c(N)nc2cn1)N=NC3C)C1COCc2c1ccn1c(C(F)(F)F)cnc21` (stereo not drawn) [Example 444, 4-Amino-N',1-dimethyl-N-(3-(trifluoromethyl)-7,10-dihydro-8H-imidazo[1,2-a]pyrano[3,4-c]pyridin-7-yl)-1H-pyrazolo[3,4-c][1,7]naphthyridine-8-carbohydrazide]: the ΔTm at 8 µM in data set [1] was 12.7 °C.

Broadly, the IC50 is the concentration that gives 50% inhibition. In general, ΔTm refers to the change in melting temperature against a reference sample. By AUC(0-inf) is commonly meant the area under the concentration-time curve extrapolated to infinity. A higher AUC(0-inf) goes with more exposure. What is called Cmax is the highest concentration seen after dosing. Usually MRT inf stands for a mean duration of stay, worked out from the concentration-time curve. The term Tmax denotes the time from dosing to the highest level. By half-life is commonly meant the time in which the quantity being followed falls by half. A high value points to slow loss.
